Test results reported in PubChem BioAssay (NCI).
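Dose response: 5 concentrations. Exposure: 48 h. Format: 96-well plates. Endpoint: linear interpolation; highest concentration if not reached. Here, GI50 denotes the concentration required for 50% inhibition of growth. TGI: concentration producing complete growth inhibition.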

Legend:
Assay in all cases: DTP human tumour cell line panel, 48 h
K-562 leukemia = tested on: K-562 leukemia
SF-539 CNS = tested on: SF-539 CNS
MALME-3M melanoma = tested on: MALME-3M melanoma
CAKI-1 renal = tested on: CAKI-1 renal
UACC-62 melanoma = tested on: UACC-62 melanoma
NCI-H226 lung = tested on: NCI-H226 lung
NCI-H522 lung = tested on: NCI-H522 lung
T-47D breast = tested on: T-47D breast
SW-620 colon = tested on: SW-620 colon
MDA-MB-231 breast = tested on: MDA-MB-231 breast
HOP-92 NSCLC = tested on: HOP-92 NSCLC
SK-MEL-28 melanoma = tested on: SK-MEL-28 melanoma
SN12C renal = tested on: SN12C renal
HOP-62 NSCLC = tested on: HOP-62 NSCLC
SF-268 CNS = tested on: SF-268 CNS
SR leukemia = tested on: SR leukemia
SF-295 CNS = tested on: SF-295 CNS
MDA-MB-435 = tested on: MDA-MB-435
SNB-19 CNS = tested on: SNB-19 CNS
OVCAR-3 ovarian = tested on: OVCAR-3 ovarian
PC-3 prostate = tested on: PC-3 prostate
CCRF-CEM leukemia = tested on: CCRF-CEM leukemia
DU-145 prostate = tested on: DU-145 prostate
LOX IMVI melanoma = tested on: LOX IMVI melanoma
OVCAR-8 ovarian = tested on: OVCAR-8 ovarian
HCT-15 colon = tested on: HCT-15 colon
HL-60(TB) leukemia = tested on: HL-60(TB) leukemia
MCF7 breast = tested on: MCF7 breast
SK-OV-3 ovarian = tested on: SK-OV-3 ovarian
786-0 renal = tested on: 786-0 renal
HCT-116 colon = tested on: HCT-116 colon
UO-31 renal = tested on: UO-31 renal
A498 renal = tested on: A498 renal
HT29 colon = tested on: HT29 colon
HCC-2998 colon = tested on: HCC-2998 colon
HS 578T breast = tested on: HS 578T breast
OVCAR-4 ovarian = tested on: OVCAR-4 ovarian
NCI-H460 lung = tested on: NCI-H460 lung
COLO 205 colon = tested on: COLO 205 colon
ACHN renal = tested on: ACHN renal
SNB-75 CNS = tested on: SNB-75 CNS
RPMI-8226 leukemia = tested on: RPMI-8226 leukemia
RXF 393 renal = tested on: RXF 393 renal
KM12 colon = tested on: KM12 colon
SK-MEL-2 melanoma = tested on: SK-MEL-2 melanoma
M14 melanoma = tested on: M14 melanoma
EKVX NSCLC = tested on: EKVX NSCLC
BT-549 breast = tested on: BT-549 breast
OVCAR-5 ovarian = tested on: OVCAR-5 ovarian
NCI-H23 lung = tested on: NCI-H23 lung
TK-10 renal = tested on: TK-10 renal
UACC-257 melanoma = tested on: UACC-257 melanoma
IGROV1 ovarian = tested on: IGROV1 ovarian
NCI/ADR-RES ovarian = tested on: NCI/ADR-RES ovarian
SK-MEL-5 melanoma = tested on: SK-MEL-5 melanoma
U251 CNS = tested on: U251 CNS
A549 NSCLC = tested on: A549 NSCLC
MOLT-4 leukemia = tested on: MOLT-4 leukemia

`COc1cc(/C=N/NC(=O)c2cnn3c2NC(c2ccccc2)C3)ccc1OCc1ccccc1` (stereo unspecified) showed a GI50 (K-562 leukemia) of 293 nM, a TGI (K-562 leukemia) of 15300 nM and a GI50 (SF-539 CNS) of 524 nM. It also gave a TGI (SF-539 CNS) of 2290 nM, a GI50 (MALME-3M melanoma) of 616 nM and a TGI (MALME-3M melanoma) of 3700 nM. The GI50 (CAKI-1 renal) was 597 nM, the TGI (CAKI-1 renal) was 3990 nM and the GI50 (UACC-62 melanoma) was 679 nM. The TGI (UACC-62 melanoma) was 7140 nM, the GI50 (NCI-H226 lung) was 2170 nM and the TGI (NCI-H226 lung) was 21800 nM. For the same compound, the GI50 (NCI-H522 lung) was 391 nM, the TGI (NCI-H522 lung) was 3900 nM and the GI50 (T-47D breast) was 1220 nM. The TGI (T-47D breast) was greater than 37500 nM, the GI50 (SW-620 colon) was 569 nM and the TGI (SW-620 colon) was 2760 nM. The GI50 (MDA-MB-231 breast) was 2170 nM, the TGI (MDA-MB-231 breast) was 9390 nM and the GI50 (HOP-92 NSCLC) was 1480 nM. For the same compound, the TGI (HOP-92 NSCLC) was 5770 nM, the GI50 (SK-MEL-28 melanoma) was 1360 nM and the TGI (SK-MEL-28 melanoma) was 5110 nM. For the same compound, the GI50 (SN12C renal) was 2260 nM, the TGI (SN12C renal) was 11000 nM and the GI50 (HOP-62 NSCLC) was 1200 nM. It also gave a TGI (HOP-62 NSCLC) of 4270 nM, a GI50 (SF-268 CNS) of 2420 nM and a TGI (SF-268 CNS) of 16700 nM. For the same compound, the GI50 (SR leukemia) was 214 nM, the TGI (SR leukemia) was 5050 nM and the GI50 (SF-295 CNS) was 453 nM. For the same compound, the TGI (SF-295 CNS) was 2110 nM, the GI50 (MDA-MB-435) was 158 nM and the TGI (MDA-MB-435) was 950 nM. It also gave a GI50 (SNB-19 CNS) of 1250 nM, a TGI (SNB-19 CNS) of 13700 nM and a GI50 (OVCAR-3 ovarian) of 331 nM. For the same compound, the TGI (OVCAR-3 ovarian) was 1340 nM, the GI50 (PC-3 prostate) was 967 nM and the TGI (PC-3 prostate) was 3230 nM. For the same compound, the GI50 (CCRF-CEM leukemia) was 712 nM, the TGI (CCRF-CEM leukemia) was greater than 100000 nM and the GI50 (DU-145 prostate) was 1470 nM. It also gave a TGI (DU-145 prostate) of 6400 nM, a GI50 (LOX IMVI melanoma) of 573 nM and a TGI (LOX IMVI melanoma) of 2790 nM. For the same compound, the GI50 (OVCAR-8 ovarian) was 2150 nM, the TGI (OVCAR-8 ovarian) was 9540 nM and the GI50 (HCT-15 colon) was 461 nM. The TGI (HCT-15 colon) was 6680 nM, the GI50 (HL-60(TB) leukemia) was 328 nM and the TGI (HL-60(TB) leukemia) was 7540 nM. The GI50 (MCF7 breast) was 365 nM, the TGI (MCF7 breast) was 14600 nM and the GI50 (SK-OV-3 ovarian) was 1710 nM. The TGI (SK-OV-3 ovarian) was 11100 nM, the GI50 (786-0 renal) was 1160 nM and the TGI (786-0 renal) was 4030 nM. The GI50 (HCT-116 colon) was 1180 nM, the TGI (HCT-116 colon) was 11700 nM and the GI50 (UO-31 renal) was 1280 nM. The TGI (UO-31 renal) was 8870 nM, the GI50 (A498 renal) was 226 nM and the TGI (A498 renal) was 2500 nM. For the same compound, the GI50 (HT29 colon) was 430 nM, the TGI (HT29 colon) was 4330 nM and the GI50 (HCC-2998 colon) was 2350 nM. For the same compound, the TGI (HCC-2998 colon) was 24500 nM, the GI50 (HS 578T breast) was 908 nM and the TGI (HS 578T breast) was 3300 nM. For the same compound, the GI50 (OVCAR-4 ovarian) was 1200 nM, the TGI (OVCAR-4 ovarian) was 3080 nM and the GI50 (NCI-H460 lung) was 437 nM. The TGI (NCI-H460 lung) was 1660 nM, the GI50 (COLO 205 colon) was 953 nM and the TGI (COLO 205 colon) was 4220 nM. The GI50 (ACHN renal) was 903 nM, the TGI (ACHN renal) was 6990 nM and the GI50 (SNB-75 CNS) was 595 nM. The TGI (SNB-75 CNS) was 2240 nM, the GI50 (RPMI-8226 leukemia) was 955 nM and the TGI (RPMI-8226 leukemia) was 23600 nM. It also gave a GI50 (RXF 393 renal) of 1290 nM, a TGI (RXF 393 renal) of 3960 nM and a GI50 (KM12 colon) of 412 nM. The TGI (KM12 colon) was 2350 nM, the GI50 (SK-MEL-2 melanoma) was 1320 nM and the TGI (SK-MEL-2 melanoma) was 7090 nM. The GI50 (M14 melanoma) was 695 nM, the TGI (M14 melanoma) was 4450 nM and the GI50 (EKVX NSCLC) was 1480 nM. For the same compound, the TGI (EKVX NSCLC) was 12400 nM, the GI50 (BT-549 breast) was 571 nM and the TGI (BT-549 breast) was 4850 nM. It also gave a GI50 (OVCAR-5 ovarian) of 2110 nM, a TGI (OVCAR-5 ovarian) of 10600 nM and a GI50 (NCI-H23 lung) of 1200 nM. The TGI (NCI-H23 lung) was 6120 nM, the GI50 (TK-10 renal) was 1760 nM and the TGI (TK-10 renal) was 5940 nM. It also gave a GI50 (UACC-257 melanoma) of 1460 nM, a TGI (UACC-257 melanoma) of 11000 nM and a GI50 (IGROV1 ovarian) of 992 nM. It also gave a TGI (IGROV1 ovarian) of 7260 nM, a GI50 (NCI/ADR-RES ovarian) of 1510 nM and a TGI (NCI/ADR-RES ovarian) of 10900 nM. For the same compound, the GI50 (SK-MEL-5 melanoma) was 663 nM, the TGI (SK-MEL-5 melanoma) was 2800 nM and the GI50 (U251 CNS) was 1140 nM. For the same compound, the TGI (U251 CNS) was 3070 nM, the GI50 (A549 NSCLC) was 1170 nM and the TGI (A549 NSCLC) was 3750 nM. The GI50 (MOLT-4 leukemia) was 1140 nM and the TGI (MOLT-4 leukemia) was 12200 nM.
